Ends that are not written are not given here. * marks the point of attachment. Octanoyl = CCCCCCCC(=O)*
Assays:
[1] = Food intake in mice after peptide injection; format: in vivo
Experimental: (§1) Analysis of gastrointestinal functions. Eight-week-old C57BL6 male mice were housed individually in a regulated environment. Before intraperitoneal treatment with different peptides, mice were deprived of food for 16 hours with free access to water. Food intake was measured by placing preweighed pellets in the cage and weighing uneaten pellets at 5 hours after treatment. For intracerebroventricular injection of different peptides, mice were deprived of food for 16 hours. Free-hand injections were performed at 2 hours after light onset and food intake monitored for 5 hours. To estimate gastric emptying responses, mice deprived of food for 16 hours were given food pellets for 90 min. before injection of different hormones or saline. After treatment, mice were deprived of food again and sacrificed 0.5, 1, and 2 hours later. The stomach was excised at the pylorus and cardia before weighing. Gastric emptying was calculated by subtracting the stomach weight of treated mice from those sacrificed at the time of peptide injection.

[2] = Body weight in adult male rats under long-term peptide treatment; format: in vivo; conditions: 1 μmol per kg body weight, three times daily
Description: The observed inhibition of jejunal contraction may trigger an afferent vagus signal to induce a central satiety response.

jejunum muscle strips = test: Isometric force measurement of jejunal muscle strips; conditions: in vitro; for contractile activity of jejunum muscle strips: isometric force, percent of maximal acetylcholine contraction
Experimental: Isometric force measurements. Strips of jejunal muscle (˜1 cm in length) were cut along the longitudinal axis of the circular muscle layer and the mucosa was removed to minimize contamination with endogenous peptides. Muscle strips were mounted to a TIS8105R (Kent Scientific Corporation, Torrington, Conn.) isometric strain gauge and immersed in a 5 ml organ bath maintained at 37° C. with oxygenated KRB [Krebs-Ringer phosphate buffer, consisting of 50 mM HEPES, 100 mM NaCl, 5 mM KCl, and 1 mM each of MgCl2, NaH2PO4, and CaCl2] as previously described. A resting force of 1.0 g was applied to intestinal muscles and a 1.5 hours equilibration period was allowed before testing of different peptides during a 5 min. period. After each test, muscle strips were washed with fresh KRB for 20 min. to allow full recovery of basal contractile activities. Maximal contraction was evaluated at the beginning and end of each experiment after treatment with 10 μM of acetylcholine chloride. Contractility data were digitized and stored in a computer using DAS Wizard™ (Measurement Computing, Middleboro, Mass.). The magnitude of contractile strength is expressed as percent of maximal contraction induced by acetylcholine.

[3] = tested on: cultured rat pituitary cells; test: Growth hormone secretion by cultured anterior pituitary cells; format: cell-based; conditions: 1 hour incubation
Experimental: Pituitary cell cultures. Anterior pituitaries were removed from adult male Sprague-Dawley rats and dispersed with 0.3% collagenase, 0.1% hyaluronidase and DNase I (10 μg/ml). The cell suspension was centrifuged at 300 g for 5 min. and cells were washed twice before incubation in Dulbecco minimal essential medium (DMEM) containing 0.1% bovine serum albumin (BSA), penicillin (100 units/ml), streptomycin (100 μg/ml), fungizone (2.5 μg/ml), and 10% fetal calf serum. Cells were seeded onto poly-lysine-coated 24-well plates at a density of ˜3×10^5 cells/well. Cultures were kept in a humidified atmosphere of 5% CO2 and 95% air at 37° C. […] Media was removed for growth hormone measurement by an enzyme-linked immunosorbent assay.

[4] = tested on: plasma membrane preparations of rat jejunum; test: I125-obestatin radioligand binding to jejunal membranes; conditions: for competition for labeled obestatin binding: displacement of iodinated wild type obestatin, rat jejunal membranes
Experimental: Iodination of obestatin was performed using the lodogen (Pierce, Upland, Ind.) procedure. Mixtures of the peptide (20 μg) and 1 mCi [125I] Nal were transferred to precoated lodogen vials and incubated for 4 min. The 125I-labeled peptide was applied to a Sep-Pak C18 cartridge (Waters) before elution with 60% acetonitrile/0.1% TFA. For radioligand binding assays, rat jejunum or other tissues were washed with buffer A (20 mM Hepes, 5 mM EDTA, 1 mM dithiothreitol (DTT), 10 μM amidinophenylmethanesulfonyl fluoride, 5 mg/L leupeptin, 100 mM KCl, pH 7.5), cut into small pieces, and homogenized using a motorized homogenizer. The homogenates were centrifuged at 1,000 g for 5 min. and the supernatant was centrifuged at 300,000 g for 1 hour at 2° C. The pellets (crude membrane fractions) were resuspended with buffer A without KCl, quickly frozen under liquid nitrogen, and stored at −80° C. until use.
After incubation, the tubes were centrifuged for 10 min. at 10,000 g, and pellets were washed twice in ice-cold PBS before quantitation of radioactivity with a γ-spectrophotometer. Specific binding was calculated by subtracting nonspecific binding from total binding.

Gastric emptying in mice = format: in vivo; conditions: 1 μmol per kg body weight, 0.5, 1 and 2 hours after treatment
Experimental: as §1

[5] = intraperitoneal injection, adult male mice deprived of food for 16 hours, cumulative intake up to 5 hours
[6] = intracerebroventricular treatment, 8 nmol per kg body weight, mice, monitored for 5 hours

Row | Substance | food intake [1, 5] | body weight [2] | contractile activity of jejunum muscle strips (jejunum muscle strips) | growth hormone secretion [3] | competition for labeled obestatin binding [4] | food intake [1, 6] | further results
1 | FNAPFDVGIKLSGVQYQQHSQALG (human) [NA-obestatin] | less effective | – | – | – | – | – | –
2 | ghrelin: peptide of 28 amino acids, serine-3 n-octanoylated; endogenous GHSR ligand; purchased from Phoenix Pharmaceuticals (GSS(Octanoyl)FLSPEHQRVQQRKESKKPPAKLQPR; UniProt Q9UBU3 24-51, looked up) [reference compound] | – | increased body weight | stimulatory effect | stimulated growth hormone secretion | does not compete | – | –
3 | FNAPFDVGIKLSGVQYQQHSQAL-NH2 [obestatin] | suppressed food intake in a time- and dose-dependent manner | suppressed body-weight gain | decreased the contractile activity | did not increase GH secretion | – | decreased food intake | gastric emptying activity (Gastric emptying in mice): sustained suppression of gastric emptying activity; effect on ghrelin-stimulated contractile activity of jejunum muscle strips (jejunum muscle strips; together with ghrelin): antagonized the stimulatory effect of ghrelin
4 | FNAPFDVGIKLSGVLYQQHSQAL-NH2 [L15-obestatin] | – | – | – | – | potency similar to the wild type obestatin | – | –
5 | MTII [reference compound] | – | – | – | – | – | anorexigenic effect | –
6 | I125-obestatin: obestatin iodinated with [125I] NaI by the Iodogen procedure | – | – | – | – | – | – | specific binding of I125-obestatin ([4]; saturation binding, crude plasma membrane fractions of rat jejunum): High affinity binding

From patent US20060229250A1, “Ghrelin associated peptide and its uses” (priority 2005, published 2006)
